In patent US8778966B2, “Quinolinone derivatives as PARP and tank inhibitors” (Janssen Pharmaceutica, NV, priority 2007, dated 2014):

Legend:
[1] = system: HCT116 cells; experiment: Mitotic arrest assay on HCT116 cells (phospho-histone H3 Ser10); type: cell-based, human; conditions: lowest active dose; for minimal effective concentration: Homo sapiens, HCT-116, HCT116 cells, read-out: Mitotic arrest HCT116 LAD (converted); for Mitotic arrest HCT116 LAD: HCT116 cells, the values are: pLAD (−log M lowest active dose)
In short: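 Read-out is imaging of phospho-histone H3 Ser10 (Alexa Fluor 488) with Hoechst nuclear counting, after 6 h compound exposure at 37 °C, DMSO ≤0.1%. LAD is the lowest dose at which the blank-corrected value over SD exceeds 5; triplicates, low-count wells excluded.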

[2] = system: tubulin; experiment: Tubulin polymerization assay; type: biochemical; set-up: key: a compound showing 0 to 50% inhibition at 20 μM is reported as score 1; Score 2 compounds are defined as compound showing more than 50% inhibition at 20 μM and less than 50% inhibition at 5 μM; a compound showing more than 50% inhibition at 5 μM is reported as score 3; conditions: tested at 20 μM and 5 μM
In short: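 Cytoskeleton kit tubulin was run in a 10 µl final volume at 37 °C, with fluorescence read every minute for 1 h. Polymerization was taken as the maximum slope (4-point linear regression) and expressed as % of no-compound control. Compounds were tested at 20 µM, then at 5 µM if inhibition exceeded 50%, and scored by % inhibition.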

| SMILES | minimal effective concentration [1] | also measured |
| --- | --- | --- |
| CCc1cc2ccc([C@](C)(C#N)Cc3ccccc3)cc2[nH]c1=O (single isomer, unassigned) [Compound 45] | > 10 µM | melting point: 162 °C |
| CCc1cc2ccc(C(C)(C#N)CC3COc4ccccc4O3)cc2[nH]c1=O (single isomer, unassigned) [Compound 47] |  | melting point: 176 °C; Mitotic arrest HCT116 LAD [1]: 5.5 |
| CCc1cc2ccc(C(C)(C#N)Cc3cccc(C#C[Si](C)(C)C)c3)cc2[nH]c1=O (centres unmarked) [Compound 1] | 1 µM | melting point: 178 °C |
| CCc1cc2ccc(C(C)(C#N)Cc3cccc(CN(C)C)c3)cc2[nH]c1=O (centres unmarked) [Compound 7] | 3.16 µM |  |
| CCc1cc2ccc(C(C)(C#N)Cc3cccc(COC)c3)cc2[nH]c1=O (centres unmarked) [Compound 8] | 0.1 µM | melting point: 122 °C |
| CCc1cc2ccc(C(C)(C#N)Cc3cccc(CO)c3)cc2[nH]c1=O (centres unmarked) [Compound 9] | 0.316 µM | melting point: 182 °C |
| CCc1cc2ccc(C(C#N)(Cc3ccccc3)CC3CC3)cc2[nH]c1=O (centres unmarked) [Compound 28] | 3.16 µM | melting point: 212 °C |
| CC(C#N)(Cc1ccccc1)c1ccc2cc(CO)c(=O)[nH]c2c1 (centres unmarked) [Compound 40] | 3.16 µM | melting point: 176 °C |
| CCc1cc2ccc(C(C)(C#N)Cc3c(F)ccc(C)c3F)cc2[nH]c1=O (centres unmarked) [Compound 41] | 0.316 µM | melting point: 190 °C |
| CCc1cc2ccc(C(C)(C#N)Cc3nc(OC)cc(OC)n3)cc2[nH]c1=O (centres unmarked) [Compound 43] | 0.0316 µM | melting point: 90 °C |
| CCc1cc2ccc(C(C)(C#N)Cc3ccccc3)cc2[nH]c1=O (centres unmarked) [Compound 44] | 0.316 µM | melting point: 168 °C |
| CCc1cc2ccc(C(C)(C#N)Cc3cccc(CN4CCN(C)CC4)c3)cc2[nH]c1=O (centres unmarked) [Compound 57] | > 10 µM |  |
| CCc1cc2ccc(C(C)(C#N)Cc3cccc(CN4CCOCC4)c3)cc2[nH]c1=O (centres unmarked) [Compound 58] | 3.16 µM |  |
| CCc1cc2ccc(C(C)(C#N)Cc3cccc(CNC)c3)cc2[nH]c1=O (centres unmarked) [Compound 59] | 10 µM |  |
| CCc1cc2ccc(C(C)(C#N)Cc3cccc(CNCCOC)c3)cc2[nH]c1=O (centres unmarked) [Compound 60] | 1 µM |  |
| CCc1cc2ccc(C(C)(C#N)Cc3cccc(CNCCN4CCOCC4)c3)cc2[nH]c1=O (centres unmarked) [Compound 61] | 10 µM |  |
| CCc1cc2ccc(C(C)(C#N)Cc3cccc(C(=O)NCCOC)c3)cc2[nH]c1=O (centres unmarked) [Compound 62] | 1 µM |  |
| CCc1cc2ccc(C(C)(C#N)Cc3cccc(C(=O)N(C)C)c3)cc2[nH]c1=O (centres unmarked) [Compound 63] | 0.316 µM |  |
| CCc1cc2ccc(C(C)(C#N)Cc3cccc(N4CCNCC4)c3)cc2[nH]c1=O (centres unmarked) [Compound 64] | 3.16 µM |  |
| CCc1cc2ccc(C(C)(C#N)Cc3cccc(N4CCCCC4)c3)cc2[nH]c1=O (centres unmarked) [Compound 65] | 1 µM |  |
| CCc1cc2ccc(C(C)(C#N)Cc3cccc(N4CCN(C)CC4)c3)cc2[nH]c1=O (centres unmarked) [Compound 66] | 3.16 µM | tubulin polymerisation score [2]: 1 (a compound showing 0 to 50% inhibition at 20 μM is reported as score 1) |

| SMILES | minimal effective concentration [1] | also measured |
| --- | --- | --- |
| CCc1cc2ccc(C(C)(C#N)Cc3cccc(OCC4CC4)c3)cc2[nH]c1=O (centres unmarked) [Compound 67] | 0.316 µM |  |
| CCc1cc2ccc(C(C)(C#N)Cc3cccc(OCCCN4CCOCC4)c3)cc2[nH]c1=O (centres unmarked) [Compound 68] | 10 µM |  |
| CCc1cc2ccc(C(C)(C#N)Cc3cccc(OCCCN4CCN(C)CC4)c3)cc2[nH]c1=O (centres unmarked) [Compound 69] | 10 µM |  |
| Cc1cc2ccc(C(C)(C#N)Cc3noc(-c4cccc(C(F)(F)F)c4)n3)cc2[nH]c1=O (centres unmarked) [Compound 70] | 1 µM |  |
| Cc1cc2ccc(C(C)(C#N)Cc3cc4ccccc4s3)cc2[nH]c1=O (centres unmarked) [Compound 71] | 0.316 µM |  |
| Cc1cc2ccc(C(C)(C#N)Cc3ccc(Cl)s3)cc2[nH]c1=O (centres unmarked) [Compound 72] | 0.1 µM |  |
| Cc1cc2ccc(C(C)(C#N)Cc3ccc(C(F)(F)F)o3)cc2[nH]c1=O (centres unmarked) [Compound 73] | 0.316 µM |  |
| Cc1cc2ccc(C(C)(C#N)Cc3cccc4cccnc34)cc2[nH]c1=O (centres unmarked) [Compound 74] | 0.316 µM |  |
| Cc1cc2ccc(C(C)(C#N)Cc3nc4ccccc4s3)cc2[nH]c1=O (centres unmarked) [Compound 75] | 0.1 µM | tubulin polymerisation score [2]: 1 (a compound showing 0 to 50% inhibition at 20 μM is reported as score 1) |
| Cc1cc2ccc(C(C)(C#N)Cc3ccccc3)cc2[nH]c1=O (centres unmarked) [Compound 76] | 0.316 µM |  |
| CCc1cc2ccc(C(C)(C#N)Cc3ccc(OC)c(C#N)c3)cc2[nH]c1=O (centres unmarked) [Compound 77] | 0.316 µM |  |
| CCc1cc2ccc(C(C)(C#N)Cc3cc(C)ccc3C)cc2[nH]c1=O (centres unmarked) [Compound 78] | 0.1 µM |  |
| CCc1cc2ccc(C(C)(C#N)Cc3ccc(F)c(C)c3)cc2[nH]c1=O (centres unmarked) [Compound 79] | 0.316 µM |  |
| CCc1cc2ccc(C(C)(C#N)Cc3cc(Cl)ccc3OC)cc2[nH]c1=O (centres unmarked) [Compound 80] | 0.1 µM |  |
| CCc1cc2ccc(C(C)(C#N)Cc3cccc(Br)c3C)cc2[nH]c1=O (centres unmarked) [Compound 81] | 0.1 µM |  |
| CCc1cc2ccc(C(C)(C#N)Cc3ccc(Cl)c(C(F)(F)F)c3)cc2[nH]c1=O (centres unmarked) [Compound 82] | 0.1 µM |  |
| CCc1cc2ccc(C(C)(C#N)Cc3ccc(C)c(F)c3F)cc2[nH]c1=O (centres unmarked) [Compound 83] | 0.316 µM |  |
| CCc1cc2ccc(C(C)(C#N)Cc3c(C)cccc3C)cc2[nH]c1=O (centres unmarked) [Compound 84] | 0.316 µM |  |
| CCc1cc2ccc(C(C)(C#N)Cc3nc4ccccc4o3)cc2[nH]c1=O (centres unmarked) [Compound 85] | 0.316 µM | tubulin polymerisation score [2]: 1 (a compound showing 0 to 50% inhibition at 20 μM is reported as score 1) |
| CCc1cc2ccc(C(C)(C#N)Cc3csc(C)n3)cc2[nH]c1=O (centres unmarked) [Compound 86] | 1 µM |  |
| CCc1cc2ccc(C(C)(C#N)Cc3ccc4nccnc4c3)cc2[nH]c1=O (centres unmarked) [Compound 87] | 0.316 µM |  |

| SMILES | minimal effective concentration [1] | also measured |
| --- | --- | --- |
| CCc1cc2ccc(C(C)(C#N)Cc3c(C)c(C)cc(C)c3C)cc2[nH]c1=O (centres unmarked) [Compound 88] | 1 µM |  |
| CCc1cc2ccc(C(C)(C#N)Cc3c(C)c(C)c(C)c(C)c3C)cc2[nH]c1=O (centres unmarked) [Compound 89] | 3.16 µM |  |
| CCc1cc2ccc(C(C)(C#N)Cc3cc(Cl)cc4c3OCOC4)cc2[nH]c1=O (centres unmarked) [Compound 90] | 0.316 µM |  |
| CCc1cc2ccc(C(C)(C#N)Cc3cc4c(cc3Cl)OCO4)cc2[nH]c1=O (centres unmarked) [Compound 91] | 0.1 µM |  |
| CCc1cc2ccc(C(C)(C#N)Cc3cc(Cl)cc4c3OCOC4)cc2[nH]c1=O (centres unmarked) [Compound 92] |  | Mitotic arrest HCT116 LAD [1]: 6.5 |
| CCc1cc2ccc(C(C)(C#N)Cc3nncn3C)cc2[nH]c1=O (centres unmarked) [Compound 93] | 1 µM |  |
| CCc1cc2ccc(C(C)(C#N)Cc3cccc4nnn(C)c34)cc2[nH]c1=O (centres unmarked) [Compound 94] | 3.16 µM |  |
| CCc1cc2ccc(C(C)(C#N)Cc3nn(C)c4ccccc34)cc2[nH]c1=O (centres unmarked) [Compound 95] | 0.1 µM | tubulin polymerisation score [2]: 2 |
| CCc1cc2ccc(C(C)(C#N)Cc3cn4ccccc4n3)cc2[nH]c1=O (centres unmarked) [Compound 96] | 1 µM | tubulin polymerisation score [2]: 1 (a compound showing 0 to 50% inhibition at 20 μM is reported as score 1) |
| CCc1cc2ccc(C(C)(C#N)Cc3cccnc3)cc2[nH]c1=O (centres unmarked) [Compound 97] | 3.16 µM |  |
| CCc1cc2ccc(C(C)(C#N)Cc3ccncc3)cc2[nH]c1=O (centres unmarked) [Compound 98] | > 10 µM | tubulin polymerisation score [2]: 1 (a compound showing 0 to 50% inhibition at 20 μM is reported as score 1) |
| CCc1cc2ccc(C(C)(C#N)Cc3cc(Cl)ccc3Cl)cc2[nH]c1=O (centres unmarked) [Compound 99] | 0.1 µM | tubulin polymerisation score [2]: 3 (a compound showing more than 50% inhibition at 5 μM is reported as score 3) |
| CCc1cc2ccc(C(C)(C#N)Cc3ccccc3C#N)cc2[nH]c1=O (centres unmarked) [Compound 101] | 0.316 µM |  |
| CCc1cc2ccc(C(C)(C#N)Cc3ccccc3OC(F)(F)F)cc2[nH]c1=O (centres unmarked) [Compound 102] | 0.316 µM |  |
| CCc1cc2ccc(C(C)(C#N)Cc3ccccc3C(F)(F)F)cc2[nH]c1=O (centres unmarked) [Compound 103] | 0.316 µM |  |
| CCc1cc2ccc(C(C)(C#N)Cc3ccc(F)c(C#N)c3)cc2[nH]c1=O (centres unmarked) [Compound 267] | 0.1 µM | tubulin polymerisation score [2]: 2 |
| CCc1cc2ccc(C(C)(C#N)CCOc3ccccc3C#N)cc2[nH]c1=O (centres unmarked) [Compound 276] | 1 µM | tubulin polymerisation score [2]: 1 (a compound showing 0 to 50% inhibition at 20 μM is reported as score 1) |
| CCc1cc2ccc(C(C)(C#N)CCOc3cc(Cl)c(Cl)cc3Cl)cc2[nH]c1=O (centres unmarked) [Compound 277] | 0.3 µM | tubulin polymerisation score [2]: 2 |
| CCc1cc2ccc(C(C)(C#N)CCOc3ccccc3F)cc2[nH]c1=O (centres unmarked) [Compound 278] | 1 µM |  |
| CCc1cc2ccc(C(C)(C#N)CCOc3ccc4c(c3)OCO4)cc2[nH]c1=O (centres unmarked) [Compound 279] | 1 µM |  |
| CCc1cc2ccc(C(C)(C#N)Cc3cc(OC)cc(OC)c3)cc2[nH]c1=O (centres unmarked) [Compound 332] | 0.1 µM |  |
